Results from ChEMBL document CHEMBL4270528, “Design, synthesis, molecular modeling and anti-proliferative evaluation of novel quinoxaline derivatives as potential DNA intercalators and topoisomerase II inhibitors” (Eur J Med Chem, 2018).
Activity calls are given as the source filed them. No cut-off for these calls is given here.

Experiments:
HepG2 = assay: Antiproliferative activity against human HepG2 cells after 48 hrs by neutral red assay; type: functional, cell-based; details: HepG2, 48 h
HEp-2 = assay: Antiproliferative activity against human Hep2 cells after 48 hrs by neutral red assay; type: functional, cell-based; details: HEp-2, 48 h
Caco-2 [1] = assay: Antiproliferative activity against human Caco2 cells after 48 hrs by neutral red assay; type: functional, cell-based; details: Caco-2, 48 h
[2] = molecular target: T1, DNA topoisomerase 2-alpha (Homo sapiens, UniProt P11388); assay: Inhibition of human topoisomerase 2 using supercoiled pHOT1 DNA as substrate after 30 mins by agarose gel electrophoresis
T1 sequence (P11388 whole entry): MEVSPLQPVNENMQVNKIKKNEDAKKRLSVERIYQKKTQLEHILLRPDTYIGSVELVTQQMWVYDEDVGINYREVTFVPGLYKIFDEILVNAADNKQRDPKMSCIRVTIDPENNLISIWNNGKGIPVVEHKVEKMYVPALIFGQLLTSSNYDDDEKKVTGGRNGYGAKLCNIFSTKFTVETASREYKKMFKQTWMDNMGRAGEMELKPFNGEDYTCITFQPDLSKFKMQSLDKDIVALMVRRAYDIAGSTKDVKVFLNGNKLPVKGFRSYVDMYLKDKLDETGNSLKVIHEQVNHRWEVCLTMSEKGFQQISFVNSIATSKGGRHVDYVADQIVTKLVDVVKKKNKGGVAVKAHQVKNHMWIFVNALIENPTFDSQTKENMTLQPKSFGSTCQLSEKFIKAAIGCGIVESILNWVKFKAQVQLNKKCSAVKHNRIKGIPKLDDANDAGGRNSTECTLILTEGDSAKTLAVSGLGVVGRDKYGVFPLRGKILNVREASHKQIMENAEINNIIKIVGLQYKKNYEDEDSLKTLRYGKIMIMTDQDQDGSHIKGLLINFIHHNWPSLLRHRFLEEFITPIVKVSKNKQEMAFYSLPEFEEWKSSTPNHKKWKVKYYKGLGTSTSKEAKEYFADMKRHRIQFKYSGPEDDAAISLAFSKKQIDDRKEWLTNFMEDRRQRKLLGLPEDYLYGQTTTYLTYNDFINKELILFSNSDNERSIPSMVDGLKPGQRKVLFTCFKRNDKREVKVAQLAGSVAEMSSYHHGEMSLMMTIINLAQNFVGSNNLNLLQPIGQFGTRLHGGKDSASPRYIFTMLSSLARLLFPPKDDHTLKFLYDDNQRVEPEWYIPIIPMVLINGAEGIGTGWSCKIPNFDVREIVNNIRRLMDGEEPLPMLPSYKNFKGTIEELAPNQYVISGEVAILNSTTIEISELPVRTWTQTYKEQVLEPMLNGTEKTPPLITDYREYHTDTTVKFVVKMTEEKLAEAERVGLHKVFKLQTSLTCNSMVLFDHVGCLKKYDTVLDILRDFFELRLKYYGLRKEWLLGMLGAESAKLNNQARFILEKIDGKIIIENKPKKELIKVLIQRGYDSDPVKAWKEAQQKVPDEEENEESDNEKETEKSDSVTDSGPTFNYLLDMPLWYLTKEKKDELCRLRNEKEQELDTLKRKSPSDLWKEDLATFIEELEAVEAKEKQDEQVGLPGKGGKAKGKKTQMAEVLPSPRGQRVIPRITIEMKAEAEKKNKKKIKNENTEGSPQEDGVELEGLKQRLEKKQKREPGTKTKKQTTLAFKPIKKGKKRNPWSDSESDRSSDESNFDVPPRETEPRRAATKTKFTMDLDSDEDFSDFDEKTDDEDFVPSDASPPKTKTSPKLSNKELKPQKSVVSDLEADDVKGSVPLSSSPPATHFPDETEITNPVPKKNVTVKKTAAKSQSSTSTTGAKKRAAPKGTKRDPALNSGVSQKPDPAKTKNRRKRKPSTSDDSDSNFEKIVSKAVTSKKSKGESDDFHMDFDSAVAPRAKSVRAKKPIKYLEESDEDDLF

Escherichia coli = assay: Induction of Escherichia coli bacteriophage lambda DNA intercalation assessed as inhibition of Sal 1/EcoR 1-mediated DNA cleavage after 2 hrs by agarose gel electrophoresis
Calf thymus DNA = assay: Inhibition of methyl green binding to calf thymus DNA incubated for 24 hrs in dark by spectrophotometric method; type: nucleic-acid assay, Bos taurus
[3] = molecular target: T1, DNA topoisomerase 2-alpha; assay: Inhibition of recombinant human topoisomerase 2 assessed as reduction in relaxation of supercoiled pBS-SK(+) DNA at 10 uM after 30 mins by agarose gel electrophoresis
[4] = molecular target: T1, DNA topoisomerase 2-alpha; assay: Inhibition of human topoisomerase 2 assessed as cleavage complex formation at 10 uM using pBS-SK(+) DNA as substrate after 60 mins by agarose gel electrophoresis
[5] = molecular target: T1, DNA topoisomerase 2-alpha; assay: Inhibition of recombinant human topoisomerase 2 assessed as reduction in relaxation of supercoiled pBS-SK(+) DNA after 30 mins by agarose gel electrophoresis
[6] = molecular target: T1, DNA topoisomerase 2-alpha; assay: Inhibition of recombinant human topoisomerase 2 assessed as reduction in relaxation of supercoiled pBS-SK(+) DNA at 5 uM after 30 mins by agarose gel electrophoresis
[7] = molecular target: T1, DNA topoisomerase 2-alpha; assay: Inhibition of recombinant human topoisomerase 2 assessed as reduction in relaxation of supercoiled pBS-SK(+) DNA at 10 to 50 uM after 30 mins by agarose gel electrophoresis
Caco-2 [8] = assay: Cell cycle arrest in human Caco2 cells assessed as accumulation at G0/G1 phase at 0.5 uM after 24 hrs by propidium iodide staining based flow cytometry (reference value: 53.85%); type: functional
Caco-2 [9] = assay: Cell cycle arrest in human Caco2 cells assessed as accumulation at S phase at 0.5 uM after 24 hrs by propidium iodide staining based flow cytometry (reference value: 30.96%); type: functional
Caco-2 [10] = assay: Cell cycle arrest in human Caco2 cells assessed as accumulation at G2/M phase at 0.5 uM after 24 hrs by propidium iodide staining based flow cytometry (reference value: 15.19%); type: functional
Caco-2 [11] = assay: Induction of apoptosis in human Caco2 cells assessed as accumulation at pre-G1 phase at 0.5 uM after 24 hrs by Annexin V-FITC/propidium iodide staining based flow cytometry (reference value: 2.76%); type: functional
Caco-2 [12] = assay: Induction of apoptosis in human Caco2 cells assessed as viable cells at 0.5 uM after 24 hrs by Annexin V-FITC/propidium iodide staining based flow cytometry (reference value: 96.65%); type: functional; details: Caco-2, 24 h, read-out: Activity
Caco-2 [13] = assay: Induction of apoptosis in human Caco2 cells assessed as early apoptotic cells at 0.5 uM after 24 hrs by Annexin V-FITC/propidium iodide staining based flow cytometry (reference value: 0.48%); type: functional
Caco-2 [14] = assay: Induction of apoptosis in human Caco2 cells assessed as late apoptotic cells at 0.5 uM after 24 hrs by Annexin V-FITC/propidium iodide staining based flow cytometry (reference value: 0.69%); type: functional
Caco-2 [15] = assay: Induction of apoptosis in human Caco2 cells assessed as necrotic cells at 0.5 uM after 24 hrs by Annexin V-FITC/propidium iodide staining based flow cytometry (reference value: 1.59%); type: functional
Caco-2 [16] = assay: Down regulation of Bax mRNA expression level in human Caco2 cells by qRT-PCR method; type: functional, cell-based
Caco-2 [17] = assay: Down regulation of Bec1 mRNA expression level in human Caco2 cells by qRT-PCR method; type: functional, cell-based
Caco-2 [18] = assay: Down regulation of Caspase 8 mRNA expression level in human Caco2 cells by qRT-PCR method; type: functional, cell-based
Caco-2 [19] = assay: Upregulation of […] mRNA expression level in human Caco2 cells by qRT-PCR method; type: functional, cell-based
Caco-2 [20] = assay: Down regulation of Cyclin B mRNA expression level in human Caco2 cells by qRT-PCR method; type: functional, cell-based
Caco-2 [21] = assay: Down regulation of Bcl-2 mRNA expression level in human Caco2 cells by qRT-PCR method; type: functional, cell-based
[22] = molecular target: T1, DNA topoisomerase 2-alpha; assay: Inhibition of human topoisomerase 2 assessed as cleavage complex formation at 25 to 50 uM using pBS-SK(+) DNA as substrate after 60 mins by agarose gel electrophoresis

Row | SMILES | IC50 (HepG2) | IC50 (Caco-2 [1]; read-out: IC50) | IC50 [2] | DNA intercalation activity (qualitative) (Escherichia coli) | IC50 (Calf thymus DNA) | IC50 (HEp-2) | further results
1 | CCOC(=O)CCCSc1nnc2c3nncn3c3ccccc3n12 | 5800 nM | 14800 nM | – | – | – | > 50000 nM | –
2 | CCOC(=O)CSc1nnc2c3nncn3c3ccccc3n12 | 810 nM | 1420 nM | 2120 nM | – | 62600 nM | 360 nM | –
3 | Sc1nnc2c3nncn3c3ccccc3n12 | 560 nM | 570 nM | 1060 nM | Active | 29800 nM | 770 nM | –
4 | COc1cccc2c1C(=O)c1c(O)c3c(c(O)c1C2=O)C[C@@](O)(C(=O)CO)C[C@@H]3O[C@H]1C[C@H](N)[C@H](O)[C@H](C)O1 [DOXORUBICIN] | 620 nM | – | 880 nM | Active | 30200 nM | 510 nM | IC50 (Caco-2 [1]): 730 nM
5 | COC(=O)CSc1nnc2c3nncn3c3ccccc3n12 | 9390 nM | 6330 nM | – | – | – | 3110 nM | –
6 | COc1cc(NS(C)(=O)=O)ccc1Nc1c2ccccc2nc2ccccc12 | – | – | – | – | – | – | inhibition [3]: Active; inhibition [4]: Active
7 | c1ccc(CSc2nnc3c4nncn4c4ccccc4n23)cc1 | > 50000 nM | 10500 nM | – | – | – | 5360 nM | –
8 | COc1cccc(NC(=O)CSc2nnc3c4nncn4c4ccccc4n23)c1 | 500 nM | 390 nM | 850 nM | Active | 38600 nM | 290 nM | inhibition [5]: Dose-dependent effect; inhibition [6]: inactive; inhibition [7]: Active; Activity (Caco-2 [8]): 44.23%; Activity (Caco-2 [9]): 15.19%; Activity (Caco-2 [10]): 40.58%; Activity (Caco-2 [11]): 13.99%; viability at 0.5 µM (Caco-2 [12]): 84.5%; Activity (Caco-2 [13]): 3.91%; Activity (Caco-2 [14]): 7.5%; Activity (Caco-2 [15]): 2.58%; Activity (Caco-2 [16]): Active; Activity (Caco-2 [17]): Active; Activity (Caco-2 [18]): Active; Activity (Caco-2 [19]): Active; Activity (Caco-2 [20]): Active; Activity (Caco-2 [21]): Active; inhibition [22]: inactive
9 | c1ccc2c(c1)nc(NC1CCCCC1)c1nncn12 | 630 nM | 460 nM | 680 nM | Active | 39400 nM | 920 nM | –
10 | O=C(NNc1nc2ccccc2n2cnnc12)NC1CCCCC1 | 2280 nM | 970 nM | 1220 nM | – | 28400 nM | 320 nM | –
11 | CSc1nnc2c3nncn3c3ccccc3n12 | 22700 nM | > 50000 nM | – | – | – | 5790 nM | –
12 | O=C(CSc1nnc2c3nncn3c3ccccc3n12)Nc1ccc(F)cc1 | 760 nM | 800 nM | 940 nM | Active | 43400 nM | 500 nM | –

Further lines, with some results ahead:

Row | IC50 (HepG2) | IC50 (Caco-2 [1]; read-out: IC50) | IC50 [2] | DNA intercalation activity (qualitative) (Escherichia coli) | IC50 (Calf thymus DNA) | SMILES | IC50 (HEp-2) | further results
13 | 1900 nM | 3460 nM | 5380 nM | – | – | CCNC(=S)NNc1nc2ccccc2n2cnnc12 | 2370 nM | –
14 | 880 nM | 1480 nM | 2090 nM | Active | 48600 nM | CNc1nc2ccccc2n2cnnc12 | 3170 nM | –
15 | 710 nM | 1440 nM | 1190 nM | – | 31300 nM | O=C(NNc1nc2ccccc2n2cnnc12)Nc1ccccc1 | 560 nM | –
16 | 1080 nM | 3000 nM | – | – | – | CCCNc1nc2ccccc2n2cnnc12 | 2330 nM | –
17 | 3180 nM | 2660 nM | – | – | – | OCCNc1nc2ccccc2n2cnnc12 | 140 nM | –
18 | 8050 nM | 8150 nM | – | – | – | COc1nc2ccccc2n2cnnc12 | 3950 nM | –
19 | 2970 nM | 4510 nM | – | – | – | c1ccc(CNc2nc3ccccc3n3cnnc23)cc1 | 40500 nM | –
20 | 830 nM | 2250 nM | 1940 nM | Active | 49100 nM | CCCCNc1nc2ccccc2n2cnnc12 | 10 nM | –
21 | 9900 nM | 6410 nM | – | – | – | CCOc1nc2ccccc2n2cnnc12 | 4210 nM | –
22 | 9890 nM | 1150 nM | 1910 nM | Active | 52300 nM | Clc1ccccc1/C=N/Nc1nc2ccccc2n2cnnc12 | 120 nM | –
23 | 2440 nM | 3760 nM | – | – | – | COc1ccccc1/C=N/Nc1nc2ccccc2n2cnnc12 | 2210 nM | –
24 | 60 nM | 5700 nM | 2970 nM | Active | 40100 nM | Clc1cccc(Cl)c1/C=N/Nc1nc2ccccc2n2cnnc12 | 520 nM | –
25 | 640 nM | 1290 nM | 2980 nM | Active | 34300 nM | S=C(NNc1nc2ccccc2n2cnnc12)Nc1ccccc1 | 100 nM | –
